Source: patent US20050080054A1, “Treating androgen decline in aging male (ADAM)-associated conditions with SARMS” (priority 2002, published 2005)
Where “and” joins values, the source holds several entries; their conditions need not be identical. Equal entries are not always repeated. Entries after “also recorded” stand apart in the source; their conditions may differ.

Tests used:
Format in all cases: in vivo, rat
[1] = Plasma FSH levels in male rats of varying hormonal status; conditions: 0.5 mg/day; for Plasma FSH levels: 14 days, n = 5
Description: (§1) Compound VI and Compound VII were synthesized and characterized in the laboratory of Dr. Duane Miller at the University of Tennessee, Memphis, Tenn. Male Sprague-Dawley rats were purchased from Harlan Biosciences (Indianapolis, Ind.). The animals were maintained on a 12-h cycle of light and dark with food and water available ad libitum. All animal studies were reviewed and approved by the Animal Care and Use Committee of The Ohio State University, and conformed to the Principles of Laboratory Animal Care (NIH publication #85-23, revised 1985). Immature male Sprague-Dawley rats weighing 187 to 214 g were randomly distributed into 9 groups of 5 animals. One day before the initiation of drug treatment, groups 4 through 6 and groups 7 through 9 received unilateral or bilateral orchidectomy, respectively, via a midline scrotal incision. […] All drugs given to animals were freshly prepared as solutions in polyethylene glycol 300 (PEG 300). Groups 4 and 7 received treatment with vehicle alone (i.e., PEG 300). Animals in groups 3, 6, and 9 received testosterone propionate (TP, 0.5 mg/day) via implantation of subdermal osmotic pumps (Model 2002, Durect Corporation, Palo Alto, Calif.). Animals in groups 2, 5, and 8 received Compound VI or Compound VII (0.5 mg/day) via implantation of subdermal osmotic pumps. After 14 days of drug treatment, rats were weighed, anesthetized, and sacrificed. Blood samples were collected by venipuncture of the abdominal aorta. Plasma samples were analyzed for testosterone, FSH, LH and osteocalcin. Testosterone concentrations were measured by AniLytics Inc. (Gaithersburg, Md.). FSH and LH levels were measured by the National Hormone and Peptide Program (Dr. A F Parlow, UCLA, CA). Plasma osteocalcin levels were determined using a commercially available rat osteocalcin EIA kit from Biomedical Technologies Inc. (Stoughton, Mass.). The ventral prostates, seminal vesicles, and levator ani muscle were removed and weighed. Osmotic pumps were also removed from animals to check for correct pump operation. The weights of all organs were normalized to body weight, and analyzed for any statistically significant differences between groups using single-factor ANOVA with the alpha value set a priori at p<0.05. The weights of prostates and seminal vesicles were used as indices for evaluation of androgenic activity, and the levator ani muscle weight was used to evaluate the anabolic activity. Statistical analyses of parameters from complete blood count or serum chemical profiling, wherever applicable, were performed by single-factor ANOVA with the alpha value set a priori at p<0.05.

[2] = tested on: androgen-responsive tissues (prostate, seminal vesicles, levator ani muscle); experiment: Androgenic and anabolic activity: weight of androgen-responsive tissues in intact, hemi-orchidectomized and castrated rats; conditions: for Levator Ani weight / Prostate weight / Seminal Vesicle weight: n = 5
Experimental: FIG. 3: Androgenic and Anabolic activity of Compound VI and Compound VII in rats. Male rats with normal testicular function (no surgical manipulation) were left untreated (Intact), treated with compound VI (0.5 mg/day), compound VII (0.5 mg/day) or testosterone proprionate (TP, 0.5 mg/day), and the weight of androgen-responsive tissues (prostate—FIG. 3A, semimal vesicles—FIG. 3B, and levator ani muscle—FIG. 3C) was determined.
(§2) FIG. 4: Androgenic and Anabolic activity of Compound VI and Compound VII in rats. Male rats received unilateral orchidectomy (Hemi-orchidectomized) and were left untreated (Intact), treated with vehicle alone (PEG 300), Compound VI (0.5 mg/day), Compound VII (0.5 mg/day), or testosterone proprionate (TP, 0.5 mg/day), and the weight of androgen-responsive tissues (prostate—FIG. 4A, semimal vesicles—FIG. 4B, and levator ani muscle—FIG. 4C) was determined.
as §2, with “5:” for “4:”, “bilateral” for “unilateral”, “(Castrated)” for “(Hemi-orchidectomized)”, “5A,” for “4A,”, “5B,” for “4B,”, “5C)” for “4C)”
as §1

[3] = tested on: female rats after ovariectomy; experiment: Bone biomechanical strength, cortical thickness, trabecular density and muscle mass in ovariectomized and intact female rats
Experimental: (§3) One hundred ten female rats were assigned to one of eleven treatment groups. Groups 1-8 were ovariectomized on day one of the study. Groups 9-11 were intact animals. Groups 1-6 received Compound VI by daily subcutaneous injection at doses of 0.1, 0.3, 0.5, 0.75, 1.0, and 3 mg/day, respectively. Groups 7 and 11 received dihydrotestosterone (DHT) at a dose of 1 mg/day. Groups 8 and 9 were ovariectomized and intact control groups, respectively. Group 10 received Compound VI at a dose of 1.0 mg/day. All animals were treated for 120 days. Bone mineral content (BMC) was determined using dual energy x-ray absorptiometry (DEXA) on days 1, 30, 60, 90, and 120.

[4] = tested on: female rats after ovariectomy; experiment: Bone mineral content (DEXA) in female rats after ovariectomy
Experimental: as §3

[5] = Plasma testosterone levels in male rats of varying hormonal status; conditions: 0.5 mg/day; for Plasma testosterone levels: osmotic pump, 14 days, n = 5
Description: as §1

[6] = Plasma LH levels in male rats of varying hormonal status; conditions: 0.5 mg/day; for Plasma LH levels: 14 days, n = 5
Description: as §1

[7] = Plasma osteocalcin levels in male rats of varying hormonal status; conditions: 0.5 mg/day; for Plasma osteocalcin levels: 14 days, n = 5
Description: as §1

[8] = TP statement for castrated male rats
[9] = castrated rats, 0.5 mg/day, 14 days
[10] = hemi-orchidectomized animals, 0.5 mg/day
[11] = hemi-orchidectomized rats, 0.5 mg/day, 14 days
[12] = intact rats, 0.5 mg/day, 14 days

CC(=O)Nc1ccc(OC[C@](C)(O)C(=O)Nc2ccc([N+](=O)[O-])c(C(F)(F)F)c2)cc1 [Compound VI]
effect on plasma FSH levels [1, 8]: no effect
Plasma FSH levels ([1]; castrated male rats): 69.6 ± 11.7 ng/mL
Plasma FSH levels ([1]; hemi-orchidectomized male rats): 15.2 ± 2.2 ng/mL
Plasma FSH levels ([1]; intact male rats): 14.4 ± 1.7 ng/mL
increasing the weight of the prostate, compared with TP ([2]; castrated animals): less effective than TP
Levator Ani weight [2, 9]: 100.65 % of intact control
Prostate weight [2, 9]: 32.55 % of intact control
Seminal Vesicle weight [2, 9]: 16.47 % of intact control
agonist character in levator ani muscle ([2]; from organ weights in rats): full agonist
agonist character in prostate and seminal vesicles ([2]; from organ weights in rats): partial agonist
effect on weight of the levator ani muscle ([2]; hemi-orchidectomized and castrated animals): significant increases
size of the levator ani muscle, of that observed in untreated hemi-orchidectomized animals [2, 10]: 108%
size of the prostate, of that observed in untreated hemi-orchidectomized animals [2, 10]: 75%
size of the seminal vesicles, of that observed in untreated hemi-orchidectomized animals [2, 10]: 79%
Levator Ani weight [2, 11]: 108.10 % of intact control
Prostate weight [2, 11]: 74.69 % of intact control
Seminal Vesicle weight [2, 11]: 78.55 % of intact control
effect on prostate weights ([2]; intact and hemi-orchidectomized animals): significant decreases in prostate weights
change in size of levator ani muscle ([2]; intact animals, 0.5 mg/day): no statistically significant changes
change in size/weight of the seminal vesicles ([2]; intact animals, 0.5 mg/day): no statistically significant changes; also recorded: no effect
Levator Ani weight [2, 12]: 109.15 % of intact control
Prostate weight [2, 12]: 79 % of intact control and 79.41 % of intact control
Seminal Vesicle weight [2, 12]: 90.54 % of intact control
adverse pharmacologic effects ([2]; male rats, 0.5 mg/day, 14 days): No adverse pharmacologic effects were observed
biomechanical strength of the L5 vertebra and femur ([3]; FIG. 11): increased biomechanical strength
cortical thickness in the femoral mid-shaft ([3]; FIG. 12): increased cortical thickness
trabecular bone loss in the distal femur ([3]; OVX animals): only partially prevented trabecular bone loss
muscle mass ([3]; gonadectomized and intact animals): increased muscle mass
trabecular density of the distal femur ([3]; intact animals): proliferative effect
whole body BMC ([4]; FIG. 9): increased whole body BMC in a dose-dependent and time-dependent manner
effect at L2-L4 vertebra and proximal femur ([4]; FIG. 10): protective effect
potency comparison Compound VI versus DHT ([4]; ovariectomized female rat bone model): more potent than DHT
bone resorption ([4]; ovariectomized female rats, 120 days): inhibited bone resorption
increase in BMC ([4]; ovariectomized female rats, 0.1 mg/day s.c. daily, treated for 120 days (group 1)): 22.9%
increase in BMC ([4]; ovariectomized female rats, 0.3 mg/day s.c. daily, treated for 120 days (group 2)): 26.0%
increase in BMC ([4]; ovariectomized female rats, 0.5 mg/day s.c. daily, treated for 120 days (group 3)): 28.5%
increase in BMC ([4]; ovariectomized female rats, 0.75 mg/day s.c. daily, treated for 120 days (group 4)): 30.5%
increase in BMC ([4]; ovariectomized female rats, 1.0 mg/day, treated for 120 days (group 5; DHT 1 mg/day)): 30.0%
increase in BMC ([4]; ovariectomized female rats, 3 mg/day s.c. daily, treated for 120 days (group 6)): 40.1%
Plasma testosterone levels ([5]; castrated male rats): 0.066 ± 0.148 ng/mL
Plasma testosterone levels ([5]; hemi-orchidectomized male rats): 1.404 ± 0.810 ng/mL
Plasma testosterone levels ([5]; intact male rats): 1.830 ± 0.510 ng/mL
effect on testosterone levels ([5]; intact, hemi-orchidectomized or castrated male rats): did not affect testosterone levels
effect on plasma LH levels [6, 8]: no effect
Plasma LH levels ([6]; castrated male rats): 8.644 ± 2.799 ng/mL
Plasma LH levels ([6]; hemi-orchidectomized male rats): 0.124 ± 0.115 ng/mL
Plasma LH levels ([6]; intact male rats): 0.026 ± 0.037 ng/mL
effect on plasma osteocalcin levels ([7]; Compound VI statement for hemi-orchidectomized and castrated animals): significant increase
Plasma osteocalcin levels ([7]; castrated male rats): 94.215 ± 12.568 ng/mL
Plasma osteocalcin levels ([7]; hemi-orchidectomized male rats): 89.804 ± 15.517 ng/mL
Plasma osteocalcin levels ([7]; intact male rats): 55.584 ± 9.715 ng/mL
